Tests used:
[1] = tested on: A549-ACE2 infected with SARS-CoV-2; assay: morphology score (similarity to uninfected cells); higher = more like uninfected cells; conditions: 24 h
HepG2 [2] = assay: drug sensitivity score (DSS) for viability; higher = more toxic; extreme values may be limits of the assay; conditions: 72 h
Caco-2 [3] = assay: as above; conditions: 72 h
Vero E6 [4] = assay: as above; conditions: 72 h
U2OS [5] = assay: as above; conditions: 72 h
Calu-3 [6] = assay: as above; conditions: 72 h
HepG2 [7] = assay: cell viability relative to DMSO; higher = less toxic; conditions: 72 h
Caco-2 [8] = assay: as above; conditions: 72 h
Vero E6 [9] = assay: as above; conditions: 72 h
U2OS [10] = assay: as above; conditions: 72 h
Calu-3 [11] = assay: as above; conditions: 72 h
A549-ACE2 [12] = assay: drug-induced phospholipidosis relative to tamoxifen; higher = more phospholipidosis
Caco-2 [13] = assay: relative viability EC50 (midpoint between 100% and the lowest measured viability); higher = less toxic; conditions: 72 h
Vero E6 [14] = assay: as above; conditions: 72 h
U2OS [15] = assay: as above; conditions: 72 h
Calu-3 [16] = assay: as above; conditions: 72 h
[17] = tested on: A549-ACE2 infected with SARS-CoV-2; assay: cell count relative to DMSO; higher = less toxic; conditions: 24 h
[18] = tested on: A549-ACE2 infected with SARS-CoV-2; assay: SARS-CoV-2 infection rate relative to DMSO; higher = more infection; conditions: 24 h
HepG2 [19] = assay: relative viability EC50 (midpoint between 100% and the lowest measured viability); higher = less toxic; conditions: 72 h
A549-ACE2 [20] = assay: phospholipidosis EC50; higher = less potent phospholipidosis inducer; conditions: 24 h

COc1cc(/C=C/C(=O)CC(=O)/C=C/c2ccc(O)c(OC)c2)ccc1O [curcumin]
Conditions | SARS-CoV-2 infection rate, [18] [%] | cell count, [17] [%] | cell viability, Caco-2 [8] [%] | cell viability, Calu-3 [11] [%] | cell viability, HepG2 [7] [%] | cell viability, U2OS [10] [%] | cell viability, Vero E6 [9] [%] | morphology score, [1]
1 nM | – | – | 97.6 | 99.9 | 104 | 99.8 | 99.9 | –
10 nM | – | – | 102 | 103 | 102 | 107 | 96.3 | –
100 nM | – | – | 97.9 | 102 | 98.2 | 95.5 | 95.2 | –
0.3 µM | 102 | 89 | – | – | – | – | – | -0.12
1000 nM | – | – | 89.7 | 108 | 101 | 99.2 | 98.2 | –
3 µM | 93 | 107 | – | – | – | – | – | 0.05
10 µM | 99 | 99 | – | – | – | – | – | 0.27
10000 nM | – | – | 45.6 | 80.6 | 55.7 | 30 | 82.9 | –
30 µM | 14 | 64 | – | – | – | – | – | 0.48

Conditions | drug sensitivity score | relative viability EC50 [µM]
Caco-2 [3] | 4.6 | –
Caco-2 [13] | – | 1.79
Calu-3 [6] | 0.3 | –
Calu-3 [16] | – | > 10
HepG2 [2] | 2.2 | –
U2OS [5] | 4 | –
U2OS [15] | – | 3.08
Vero E6 [4] | 0.6 | –
Vero E6 [14] | – | > 10

drug-induced phospholipidosis [%], A549-ACE2 [12]
Conditions | 0.3 µM | 0.833333 µM | 3.33333 µM | 6.66667 µM | 10 µM | 30 µM
24 h | 1.25 | 2.99 | 3.97 | 17.5 | 28.2 | 105
48 h | 3.07 | 1.47 | 2.2 | 8.78 | 11 | –
72 h | 3.47 | 0.682 | 1.8 | 7.67 | 8.59 | –

c1cnc(N2CCN(Cc3ccc4c(c3)OCO4)CC2)nc1 [piribedil]
Conditions | SARS-CoV-2 infection rate, [18] [%] | cell count, [17] [%] | cell viability, Caco-2 [8] [%] | cell viability, Calu-3 [11] [%] | cell viability, HepG2 [7] [%] | cell viability, U2OS [10] [%] | cell viability, Vero E6 [9] [%] | morphology score, [1]
1 nM | – | – | 106 | 110 | 98.9 | 104 | 100 | –
10 nM | – | – | 96.7 | 98 | 112 | 98.5 | 105 | –
100 nM | – | – | 95.8 | 99.3 | 98.9 | 103 | 100 | –
0.3 µM | 109 | 98 | – | – | – | – | – | -0.23
1000 nM | – | – | 92.9 | 89.5 | 107 | 98 | 98.1 | –
3 µM | 104 | 96 | – | – | – | – | – | -0.1
10 µM | 99 | 97 | – | – | – | – | – | -0.05
10000 nM | – | – | 90.3 | 102 | 102 | 99.9 | 94.4 | –
30 µM | 88 | 104 | – | – | – | – | – | 0.26

Conditions | drug sensitivity score | relative viability EC50 [µM]
Caco-2 [3] | 0 | –
Caco-2 [13] | – | > 10
Calu-3 [6] | 0 | –
Calu-3 [16] | – | > 10
HepG2 [2] | 0 | –
HepG2 [19] | – | > 10
U2OS [5] | 0 | –
U2OS [15] | – | > 10
Vero E6 [4] | 0 | –
Vero E6 [14] | – | > 10

drug-induced phospholipidosis [%], A549-ACE2 [12]
Conditions | 0.3 µM | 0.833333 µM | 3.33333 µM | 6.66667 µM | 10 µM | 30 µM
24 h | 0.73 | -0.78 | -1.88 | -1.98 | -0.73 | 4.07
48 h | 1.04 | -0.48 | -0.16 | 0.15 | 0.48 | 5.06
72 h | 3.05 | -0.292 | -0.287 | 2.2 | 1.92 | 7.77

OC1(c2ccc(Cl)c(C(F)(F)F)c2)CCN(CCCC(c2ccc(F)cc2)c2ccc(F)cc2)CC1 [penfluridol]
Conditions | SARS-CoV-2 infection rate, [18] [%] | cell count, [17] [%] | cell viability, Caco-2 [8] [%] | cell viability, Calu-3 [11] [%] | cell viability, HepG2 [7] [%] | cell viability, U2OS [10] [%] | cell viability, Vero E6 [9] [%] | morphology score, [1]
1 nM | – | – | 87.3 | 102 | 106 | 99.4 | 105 | –
10 nM | – | – | 74.2 | 95.2 | 108 | 100 | 96.3 | –
0.1 µM | 100 | 101 | – | – | – | – | – | 0.06
100 nM | – | – | 96.5 | 100 | 104 | 104 | 94.1 | –
0.3 µM | 102 | 94 | – | – | – | – | – | 0.27
1 µM | 74 | 113 | – | – | – | – | – | 0.55
1000 nM | – | – | 82.2 | 93.1 | 103 | 93.2 | 97.8 | –
3 µM | 8 | 95 | – | – | – | – | – | 0.86
10000 nM | – | – | 0.3 | 1 | 0.2 | 3 | 0.1 | –

Conditions | drug sensitivity score | phospholipidosis EC50 [µM] | relative viability EC50 [µM]
A549-ACE2 [20] | – | 0.874 | –
Caco-2 [3] | 8.4 | – | –
Caco-2 [13] | – | – | 1.83
Calu-3 [6] | 6.5 | – | –
Calu-3 [16] | – | – | 2.6
HepG2 [2] | 5.3 | – | –
HepG2 [19] | – | – | 3.34
U2OS [5] | 6.4 | – | –
U2OS [15] | – | – | 2.6
Vero E6 [4] | 5.9 | – | –
Vero E6 [14] | – | – | 3

drug-induced phospholipidosis [%], A549-ACE2 [12]
Conditions | 0.3 µM | 0.833333 µM | 3.33333 µM | 6.66667 µM
24 h | 12.8 | 30.2 | 64.4 | 48.3
48 h | 13.8 | 28.2 | 67.6 | –
72 h | 16.8 | 26.4 | 77.7 | –
